Measured values taken from patent publication US10577363B2, “Substituted piperidine compounds” (EPIZYME, INC., priority 2014, dated 2020).
Counter-ions that a name gives are not always drawn.

Assays:
SMYD3 [1] = target: T1, SMYD3 (Homo sapiens (Human), UniProt Q9H7B4); test: SMYD3 biochemical assay (SPA, 3H-SAM methylation of MEKK2 protein substrate); conditions: read-out: SMYD3 Biochem IC50 (μM)*
In short: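 Full-length native human SMYD3 (E. coli-expressed, tags removed) preincubated with compounds 30 min at room temperature, then reaction started with 3H-SAM and GST-tagged MEKK2 protein in 25 mM Tris-Cl pH 8.0, 1 mM TCEP, 0.005% BSG, 0.005% Tween 20. Quenched with unlabelled SAM (100 uM final); 3H-MEKK2 counted by SPA.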

SMYD3 [2] = target: T1, SMYD3; test: SMYD3 cell assay (Trimethyl-MEKK2 In-Cell Western in 293T/17 cells); type: cell-based
Text: Trimethyl-MEKK2-in-Cell Western Assay
MEM/Glutamax medium, Optimem Reduced Serum medium, penicillin-streptomycin, 0.05% trypsin and 1×D-PBS were purchased from Life Technologies, Grand Island, N.Y., USA. PBS-10× was purchased from Ambion, Life Technologies, Grand Island, N.Y., USA. PBS with Tween 20 (PBST (10×)) was purchased from KPL, Gaithersburg, Md., USA. Tet System FBS-approved FBS US Source was purchased from Clontech, Mountain View, Calif., USA. Odyssey blocking buffer, 800CW goat anti-rabbit IgG (H+L) antibody, 680CW Goat anti-mouse IgG (H+L) and Licor Odyssey infrared scanner were purchased from Licor Biosciences, Lincoln, Nebr., USA. Tri-methyl-Lysine [A260]-MEKK2 antibody, MEKK2 and SMYD3 plasmids were made at Epizyme. Anti-flag monoclonal mouse antibody was purchased from Sigma, St. Louis, Mo., USA. Methanol was purchased from VWR, Franklin, Mass., USA. 10% Tween 20 was purchased from KPL, Inc., Gaithersburg, Md., USA. Fugene was purchased from Promega, Madison, Wis., USA. The Biotek ELx405 was purchased from BioTek, Winooski, Vt., USA. The multidrop combi was purchased from Thermo Scientific, Waltham, Mass., USA.
Cell Treatment, in Cell Western (ICW) for Detection of Trimethyl-Lysine-MEKK2 and MEKK2.
Plasmids were prepared for delivery to cells by first mixing 1350 μL Opti-MEM with Fugene (81 μL) in a sterile Eppendorf and incubated for five minutes at room temperature (RT). […] Entire volume of Opti-MEM/Fugene mixture was then added to a microfuge tube containing DNA plasmid, mixed and then incubated×15 minutes at RT. […] Medium was then removed, and cells were washed once with PBS in the flask. Trypsin 0.05% (3 mL) was added and cells incubated for three minutes. Room temperature MEM+10% Tet system FBS was added and cells were mixed gently, and counted using the Vi-cell. Cells were seeded at 100,000 cells/mL in 50 μL MEM/10% Tet FBS/Pen/Strep to a 384 well black/clear poly-D-lysine coated plate containing test agent diluted in DMSO. The final top concentration of test compound was 40 μM. […] Plates were incubated×30 minutes at RT in low-airflow area, followed by incubation at 37° C. under 5% CO2 for 24 hours. Medium was aspirated from all wells of assay plates prior to fixation and permeabilization with ice cold (−20° C.) methanol (90 μL/well) for ten minutes. Plates were rinsed with PBS three times on BioTek ELx405. PBS was removed with a final aspiration, and Odyssey blocking buffer (50 μL/well) was added to each well and incubated for one hour at RT. Primary antibody solution was prepared (anti-trimethyl-MEKK2 at 1:600 dilution plus mouse anti-flag antibody at 1:10,000 dilution in diluent (Odyssey Blocking buffer+0.1% Tween 20)) and 20 μL per well was dispensed using the Multidrop Combi. Assay plates were then sealed with foil, and incubated overnight at 4° C. Plates were washed five times with PBS-Tween (1×) on Biotek ELx405 and blotted on paper towel to remove excess reagent.
First, the ratio for each well was determined by:
Each plate included fourteen control wells of DMSO only treatment (Minimum Inhibition) as well as fourteen control wells for maximum inhibition (Background). The average of the ratio values for each control type was calculated and used to determine the percent inhibition for each test well in the plate. Reference compound was serially diluted two-fold in DMSO for a total of nine test concentrations, beginning at 40 μM.
Percent inhibition was calculated (below).
Non-linear regression curves were generated to calculate the IC50 and dose-response relationship using triplicate wells per concentration of compound.

[3] = 293T/17 cells, read-out: SMYD3 Cell IC50 (μM)*
[4] = read-out: SMYD3 Cell IC50 (μM)*
[5] = Table 1A, IC50 values are an average of n = 1 to n = 50, read-out: SMYD3 Cell IC50

T1 sequence (Q9H7B4 whole entry): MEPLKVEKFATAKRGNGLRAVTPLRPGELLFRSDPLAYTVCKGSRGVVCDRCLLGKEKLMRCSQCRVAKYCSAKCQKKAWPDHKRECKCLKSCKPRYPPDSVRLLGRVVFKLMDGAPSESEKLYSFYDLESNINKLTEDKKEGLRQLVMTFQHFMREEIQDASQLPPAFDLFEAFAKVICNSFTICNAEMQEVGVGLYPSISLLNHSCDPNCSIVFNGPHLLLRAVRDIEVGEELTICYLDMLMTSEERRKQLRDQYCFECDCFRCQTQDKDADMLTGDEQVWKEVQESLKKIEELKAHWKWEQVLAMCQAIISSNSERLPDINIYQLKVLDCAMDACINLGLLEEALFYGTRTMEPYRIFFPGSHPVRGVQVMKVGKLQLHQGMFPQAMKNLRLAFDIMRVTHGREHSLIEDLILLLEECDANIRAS

| SMILES | IC50 (SMYD3 [1]) [µM] | IC50 (SMYD3 [2]; [3]) [µM] | also measured |
| --- | --- | --- | --- |
| C[C@H]1C[C@@H](NC(=O)c2cc(C3CC3)on2)CCN1S(=O)(=O)CC1CCNCC1 (single isomer, unassigned) [Cpd. No. 417] | 0.00307 | 0.0508 | – |
| C[C@@H]1C[C@H](NC(=O)c2cc(C3CC3)on2)CCN1S(=O)(=O)CC1CCNCC1 (single isomer, unassigned) [Cpd. No. 418] | 0.0172 | 0.197 | – |
| O=C(N[C@@H]1C[C@H]2CC[C@@H](C1)N2S(=O)(=O)CCN1CCCC1)c1cc(C2CC2)on1 (single isomer, unassigned) [Cpd. No. 436] | 0.0613 | 0.285 | – |
| CC(C)c1cc(C[C@@H](CN)C(=O)N2CCC(NC(=O)c3cc(C4CC4)on3)CC2)ccc1O [Cpd. No. 121, N-[1-[(2S)-3-amino-2-[[4-hydroxy-3-(propan-2-yl)phenyl]methyl]propanoyl]piperidin-4-yl]-5-cyclopropyl-1,2-oxazole-3-carboxamide hydrochloride salt] | 0.00957 | – | IC50 (SMYD3 [2]; [4]): 0.68 µM |
| NCCCS(=O)(=O)N1C2CCCC1CC(NC(=O)c1cc(C3CC3)on1)C2 (centres unmarked) [Cpd. No. 181, N-[9-[(3-aminopropane)sulfonyl]-9-azabicyclo[3.3.1]nonan-3-yl]-5-cyclopropyl-1,2-oxazole-3-carboxamide hydrochloride salt] | 0.0927 | – | IC50 (SMYD3 [2]; [4]): 0.566 µM |
| C[C@H]1C[C@@H](NC(=O)c2cc(C3CC3)on2)CCN1S(=O)(=O)N1CCN(C)CC1 [Cpd. No. 279, 5-cyclopropyl-N-[(2S,4S)-2-methyl-1-(4-methylpiperazine-1-sulfonyl)piperidin-4-yl]-1,2-oxazole-3-carboxamide] | 0.0815 | 0.266 | – |
| O=C(N[C@H]1CCN(C(=O)CC2CCNCC2)[C@@H](Cc2ccccc2)C1)c1cc(C2CC2)on1 [Cpd. No. 348, N-((2S,4S)-2-benzyl-1-(2-(piperidin-4-yl)acetyl)piperidin-4-yl)-5-cyclopropylisoxazole-3-carboxamide hydrochloride] | 0.0225 | 0.838 | – |
| C[C@H]1CN(S(=O)(=O)CCCN)CC[C@H]1NC(=O)c1cc(C2CC2)on1 [Cpd. No. 386, N-((3S,4R)-1-(3-aminopropylsulfonyl)-3-methylpiperidin-4-yl)-5-cyclopropylisoxazole-3-carboxamide] | 0.0282 | – | IC50 (SMYD3 [2]): 0.34 µM |
| C[C@@H]1CN(C(=O)[C@H]2CC[C@H](N)CC2)[C@H](C)C[C@@H]1NC(=O)c1cc(C2CC2)on1 [Cpd. No. 420, N-((2R,4S,5R)-1-((1r,4R)-4-aminocyclohexanecarbonyl)-2,5-dimethylpiperidin-4-yl)-5-cyclopropylisoxazole-3-carboxamide] | 0.0113 | 0.205 | – |
| C[C@H]1C[C@@H](NC(=O)c2cc(C3CC3)on2)CCN1S(=O)(=O)c1ccc(NCCN2CCOCC2)nc1 [Cpd. No. 458, 5-cyclopropyl-N-((2S,4S)-2-methyl-1-(6-(2-morpholinoethylamino)pyridin-3-ylsulfonyl)piperidin-4-yl)isoxazole-3-carboxamide dihydrochloride] | 0.132 | 0.581 | – |
| O=C(N[C@@H]1C[C@H]2CC[C@@H](C1)N2S(=O)(=O)c1ccc2[nH]c(=O)[nH]c2c1)c1cc(C2CC2)on1 [compound 494, 5-cyclopropyl-N-((1R,3s,5S)-8-((2-oxo-2,3-dihydro-1H-benzo[d]imidazol-5-yl)sulfonyl)-8-azabicyclo[3.2.1]octan-3-yl)isoxazole-3-carboxamide] | – | – | IC50 (SMYD3 [2]; [5]): 5.18 µM |
| CC(C)[C@H]1C[C@@H](NC(=O)c2cc(C3CC3)on2)CCN1S(=O)(=O)CCCN [compound 501, N-((2R,4S)-1-((3-aminopropyl)sulfonyl)-2-isopropylpiperidin-4-yl)-5-cyclopropylisoxazole-3-carboxamide] | – | – | IC50 (SMYD3 [2]; [5]): 4.49 µM |
| C[C@@H]1CN(S(=O)(=O)CCCNCc2ccccc2)[C@H](C)C[C@@H]1NC(=O)c1cc(C2CC2)on1 [compound 681, N-((2R,4S,5R)-1-((3-(benzylamino)propyl)sulfonyl)-2,5-dimethylpiperidin-4-yl)-5-cyclopropylisoxazole-3-carboxamide] | – | – | IC50 (SMYD3 [2]; average of n = 1 to n = 50, read-out: SMYD3 Cell IC50): 0.93 µM |
